In one experiment the test system is E. coli. The class given is cell-based, Escherichia coli. The settings on record: 3 kGy; TGY supplemented with 1 μM Mn^2+, 13 mM phosphate, 3 mM uridine or 384 mM (3%) DMSO individually. The protocol: FIG. 3 depicts the survival curves of E. coli exposed to acute IR and grown in the presence of various supplements: TGY, standard peptide-rich growth medium; DMSO, dimethyl sulfoxide; UMnP, 3 mM uridine/1 μM Mn^2+/13 mM PiB (phosphate buffer).
Individually and in combination, the radioprotective properties of Mn^2+, phosphate, uridine and DMSO were determined using E. coli grown in TGY medium; TGY is a peptide-rich medium based on yeast extract, and contains approximately 200 nM Mn.

A further experiment deals with bacterial cell culture. The experiment in a line: Radioprotection of a bacterial cell culture. The class given is cell-based. The settings on record: agent alone. An excerpt: (§1) Applicants have shown that adenosine alone and Mn(II) alone are radioprotective […] for a mammalian cell line and for a bacterial cell culture.
The subject of a further experiment is mammalian cell line. The experiment can be described thus: Radioprotection of a mammalian cell line. The settings on record: agent alone. The class given is cell-based.
From the text: as §1

From patent publication US9234168B2, “Compositions containing amino acids, phosphate and manganese and their uses” (The Henry M. Jackson Foundation for the Advancement of …, priority 2010, dated 2016) come the findings set out here.

Turning to phosphate, the “increase of the resistance of E. coli” value with E. coli is 800 times. For `C[S+](C)[O-]` [DMSO, dimethyl sulfoxide], the “increase of the resistance of E. coli” value with E. coli was 50 times. Consider `O=c1ccn([C@@H]2O[C@H](CO)[C@@H](O)[C@H]2O)c(=O)[nH]1` [uridine], for which the “increase of the resistance of E. coli” value with E. coli worked out at 50 times. For `Nc1ncnc2c1ncn2[C@@H]1O[C@H](CO)[C@@H](O)[C@H]1O` [adenosine], the “radioprotection of a bacterial cell culture” value with bacterial cell culture is “radioprotective”. Further, the “radioprotection of a mammalian cell line” value in the experiment with mammalian cell line is given as “radioprotective”. Regarding `[Mn+2]` [Mn^2+], the “radioprotection of a bacterial cell culture” value in the experiment with bacterial cell culture is reported as “radioprotective”. The “increase of the resistance of E. coli” value in the experiment with E. coli was “did not increase the resistance”. For the same compound, the “radioprotection of a mammalian cell line” value with mammalian cell line is listed as “radioprotective”.
